# Where two headings read alike, the source gives them in different places.
# What was measured:
# CDK12 [1] = molecular target: T1, CDK12 (Homo sapiens (Human), UniProt Q9NYV4); assay: Biochemical assay for CDK12 (IC50 determination), LANCE TR-FRET; details: for IC50: ATP 100 μM, 60 min pre-incubation
# Procedure: The inhibitory activity of the test compounds was assessed by the LANCE TR-FRET assay, which detects the ATP-dependent phosphorylation of an ULight-4E-BP1 (Thr37/Thr46) substrate peptide (100 nM) by CDK12 (30 nM). Briefly, the enzyme reaction was run in reaction buffer (25 mM HEPES (pH 7.5), 10 mM MgCl2, 0.01% BSA, 0.01% Triton x, 1 mM DTT). The assay was performed in 384-well plate format. The end concentration of the ATP substrate was 100 μM, and that of the ULight-4E-BP1 (Thr37/Thr46) substrate peptide was 100 nM, and of CDK12 was 30 nM. Pre-incubation of the compound and enzyme was performed for 60 min at room temperature. After 60 min incubation at room temperature, the reaction was terminated by the addition of 40 mM EDTA and 0.5 nM Eu-labeled anti-phospho-eIF4E-binding protein (Thr37/46) antibody in LANCE detection buffer. […] The readout was calculated as (acceptor counts/donor counts)×1000. The IC50 values were derived by fitting a sigmoidal dose-response curve to a plot of assay readout over inhibitor concentration.
# Target sequence in this assay (Q9NYV4 whole entry, looked up, species assumed): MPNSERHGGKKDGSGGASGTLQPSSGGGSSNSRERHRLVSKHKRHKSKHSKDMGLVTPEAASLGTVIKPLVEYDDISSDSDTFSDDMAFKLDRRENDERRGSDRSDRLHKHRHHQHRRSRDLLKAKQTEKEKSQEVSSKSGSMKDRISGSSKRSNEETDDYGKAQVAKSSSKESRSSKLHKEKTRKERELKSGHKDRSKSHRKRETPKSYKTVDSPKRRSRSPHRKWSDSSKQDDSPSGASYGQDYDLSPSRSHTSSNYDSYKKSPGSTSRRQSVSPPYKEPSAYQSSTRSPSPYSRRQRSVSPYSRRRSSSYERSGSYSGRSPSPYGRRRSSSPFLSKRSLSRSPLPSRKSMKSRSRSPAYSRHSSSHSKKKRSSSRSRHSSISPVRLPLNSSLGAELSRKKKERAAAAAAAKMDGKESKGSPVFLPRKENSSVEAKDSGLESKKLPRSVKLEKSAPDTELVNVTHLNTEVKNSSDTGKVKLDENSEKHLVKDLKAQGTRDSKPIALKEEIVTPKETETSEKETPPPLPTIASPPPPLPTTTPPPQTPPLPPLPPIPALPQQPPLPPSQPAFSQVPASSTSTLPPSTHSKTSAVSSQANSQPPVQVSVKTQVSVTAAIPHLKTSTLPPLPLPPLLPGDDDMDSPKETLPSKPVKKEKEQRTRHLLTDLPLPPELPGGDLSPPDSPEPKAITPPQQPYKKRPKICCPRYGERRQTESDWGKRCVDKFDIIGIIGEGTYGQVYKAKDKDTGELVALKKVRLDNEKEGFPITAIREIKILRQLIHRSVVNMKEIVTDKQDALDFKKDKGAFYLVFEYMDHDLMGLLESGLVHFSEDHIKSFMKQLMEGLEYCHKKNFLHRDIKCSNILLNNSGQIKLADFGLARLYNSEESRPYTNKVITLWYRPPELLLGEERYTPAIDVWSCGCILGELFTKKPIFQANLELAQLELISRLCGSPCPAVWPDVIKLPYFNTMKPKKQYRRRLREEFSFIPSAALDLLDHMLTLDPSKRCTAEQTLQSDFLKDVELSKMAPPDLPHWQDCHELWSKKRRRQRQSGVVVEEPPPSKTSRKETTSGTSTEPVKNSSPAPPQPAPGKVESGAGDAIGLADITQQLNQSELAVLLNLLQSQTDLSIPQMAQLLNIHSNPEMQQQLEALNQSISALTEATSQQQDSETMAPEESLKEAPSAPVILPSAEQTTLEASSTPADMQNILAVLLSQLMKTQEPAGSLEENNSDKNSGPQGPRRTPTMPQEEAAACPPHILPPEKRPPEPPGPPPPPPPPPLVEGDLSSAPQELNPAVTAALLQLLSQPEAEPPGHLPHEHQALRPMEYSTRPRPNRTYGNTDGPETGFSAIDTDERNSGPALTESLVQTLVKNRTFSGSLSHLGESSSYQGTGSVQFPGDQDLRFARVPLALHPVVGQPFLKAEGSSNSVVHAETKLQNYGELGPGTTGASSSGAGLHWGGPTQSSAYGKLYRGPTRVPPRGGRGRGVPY
# Target sequence in this assay (O75909 whole entry partner, looked up, species assumed): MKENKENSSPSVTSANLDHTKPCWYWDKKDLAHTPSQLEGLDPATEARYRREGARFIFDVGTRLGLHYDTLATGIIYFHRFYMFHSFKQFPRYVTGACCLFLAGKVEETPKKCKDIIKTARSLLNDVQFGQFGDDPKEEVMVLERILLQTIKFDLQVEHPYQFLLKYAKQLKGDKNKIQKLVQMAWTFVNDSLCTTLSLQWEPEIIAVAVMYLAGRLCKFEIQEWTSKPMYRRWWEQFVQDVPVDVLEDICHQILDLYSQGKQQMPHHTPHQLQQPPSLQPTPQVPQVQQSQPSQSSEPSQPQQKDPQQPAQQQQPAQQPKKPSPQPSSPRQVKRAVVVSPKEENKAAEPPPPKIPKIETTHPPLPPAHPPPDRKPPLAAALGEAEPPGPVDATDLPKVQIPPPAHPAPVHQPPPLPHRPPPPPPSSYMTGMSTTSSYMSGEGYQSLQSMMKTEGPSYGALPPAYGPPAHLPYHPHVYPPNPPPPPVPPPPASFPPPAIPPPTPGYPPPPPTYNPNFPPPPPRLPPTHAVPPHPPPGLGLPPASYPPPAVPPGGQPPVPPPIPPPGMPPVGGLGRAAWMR
# CDK13 = CDK13 (Homo sapiens (Human), UniProt Q14004); assay: Biochemical assay for CDK13, LanthaScreen Eu Kinase Binding Assay; details: for IC50: kinase tracer 236 100 nM; for Ratio CDK7/CDK13: ratio of IC50
# From the text: Binding of an inhibitor to the kinase competes for binding with the tracer, resulting in a loss of FRET signal.
# CDK7 = CDK7 (Homo sapiens (Human), UniProt P50613); assay: Biochemical assay for CDK7, LANCE TR-FRET; details: ATP 1 mM/100 μM, 60 min pre-incubation; read-out: CDK 7 IC50
# Procedure: The inhibitory activity of the test compounds was assessed by the LANCE TR-FRET assay, which detects the ATP-dependent phosphorylation of an ULight-myelin basic protein (MBP) substrate peptide (100 nM) by CDK7 (10 nM). Briefly, the enzyme reaction was run in reaction buffer (20 mM HEPES (pH 7.5), 10 mM MgCl2, 0.01% Triton x, 100 μM Sodium Orthovanadate, 1 mM DTT). The assay was performed in 384-well plate. The end concentration of the ATP substrate was 1 mM/100 μM, and that of the ULight-MBP substrate peptide was 100 nM, and of CDK7 was 10 nM. Pre-incubation of the compound and enzyme was performed for 60 min at room temperature. After 60 min incubation at room temperature, the reaction was terminated by the addition of 40 mM EDTA and 1 nM Eu-labeled anti-phospho-MBP-binding protein antibody in the buffer. […] The readout was calculated as (acceptor counts/donor counts)×1000. The IC50 values were derived by fitting a sigmoidal dose-response curve to a plot of assay readout over inhibitor concentration.
# CDK12 [2] = molecular target: T1, CDK12; assay: Biochemical assay for CDK12 (Kd determination), kinase-tagged phage/qPCR competition binding
# Procedure: Kinase-tagged T7 phage strains were grown in parallel in 24-well blocks in an E. coli host derived from the BL21 strain. E. coli were grown to log-phase and infected with T7 phage from a frozen stock (multiplicity of infection=0.4) and incubated with shaking at 32° C. until lysis (90-150 minutes). The lysates were centrifuged (6,000×g) and filtered (0.2 μm) to remove cell debris. The remaining kinases were produced in HEK-293 cells and subsequently tagged with DNA for qPCR detection. […] The liganded beads were blocked with excess biotin and washed with blocking buffer (SeaBlock (Pierce), 1% BSA, 0.05% Tween 20, 1 mM DTT) to remove unbound ligand and to reduce non-specific phage binding. […] Test compounds were prepared as 40× stocks in 100% DMSO and directly diluted into the assay. All reactions were performed in polypropylene 384-well plates in a final volume of 0.02 ml. […] The kinase concentration in the eluates was measured by qPCR.
# Target sequence in this assay (Q9NYV4 whole entry, species assumed): as the sequence (Q9NYV4 whole entry, looked up, species assumed) above
# CDK13, sequence (Q14004 whole entry, looked up, species assumed): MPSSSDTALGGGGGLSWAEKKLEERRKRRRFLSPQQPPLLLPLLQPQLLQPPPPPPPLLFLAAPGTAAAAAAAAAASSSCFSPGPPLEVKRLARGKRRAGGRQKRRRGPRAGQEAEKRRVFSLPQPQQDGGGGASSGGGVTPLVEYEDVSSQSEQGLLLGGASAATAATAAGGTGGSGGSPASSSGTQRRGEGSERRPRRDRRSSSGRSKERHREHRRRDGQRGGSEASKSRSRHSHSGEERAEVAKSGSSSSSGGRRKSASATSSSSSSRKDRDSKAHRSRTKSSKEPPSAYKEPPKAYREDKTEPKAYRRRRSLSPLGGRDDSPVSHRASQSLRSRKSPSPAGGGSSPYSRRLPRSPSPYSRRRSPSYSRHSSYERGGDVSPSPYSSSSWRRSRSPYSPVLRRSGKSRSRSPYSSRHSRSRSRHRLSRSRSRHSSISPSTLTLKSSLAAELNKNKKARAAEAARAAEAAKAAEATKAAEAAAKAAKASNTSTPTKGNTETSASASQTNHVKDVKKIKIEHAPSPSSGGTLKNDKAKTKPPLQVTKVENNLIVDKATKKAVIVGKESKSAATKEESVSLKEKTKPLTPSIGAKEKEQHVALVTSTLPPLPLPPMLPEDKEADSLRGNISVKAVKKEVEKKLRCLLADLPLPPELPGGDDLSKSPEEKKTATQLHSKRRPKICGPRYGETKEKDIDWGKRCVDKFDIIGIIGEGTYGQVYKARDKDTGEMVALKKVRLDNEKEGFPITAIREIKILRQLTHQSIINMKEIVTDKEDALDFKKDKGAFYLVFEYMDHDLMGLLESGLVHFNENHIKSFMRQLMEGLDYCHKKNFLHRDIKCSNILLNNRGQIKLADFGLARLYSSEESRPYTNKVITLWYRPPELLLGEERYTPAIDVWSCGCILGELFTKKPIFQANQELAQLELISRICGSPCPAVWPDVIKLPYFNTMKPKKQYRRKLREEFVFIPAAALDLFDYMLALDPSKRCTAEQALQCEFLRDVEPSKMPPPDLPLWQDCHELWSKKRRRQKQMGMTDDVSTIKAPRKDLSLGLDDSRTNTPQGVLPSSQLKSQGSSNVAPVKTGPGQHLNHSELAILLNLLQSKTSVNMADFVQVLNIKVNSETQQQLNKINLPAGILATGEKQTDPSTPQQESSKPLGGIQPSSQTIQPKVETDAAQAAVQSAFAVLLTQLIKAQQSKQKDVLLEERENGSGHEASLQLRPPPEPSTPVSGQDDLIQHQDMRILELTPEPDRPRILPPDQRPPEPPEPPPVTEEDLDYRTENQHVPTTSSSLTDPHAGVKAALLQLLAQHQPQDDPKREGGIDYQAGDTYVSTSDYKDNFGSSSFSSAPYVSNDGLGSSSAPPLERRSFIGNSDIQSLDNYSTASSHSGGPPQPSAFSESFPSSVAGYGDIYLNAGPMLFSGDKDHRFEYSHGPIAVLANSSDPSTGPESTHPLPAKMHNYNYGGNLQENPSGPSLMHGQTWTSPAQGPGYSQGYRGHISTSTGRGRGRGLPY
# CDK13, sequence (O75909 whole entry partner, looked up, species assumed): as the sequence (O75909 whole entry partner, looked up, species assumed) above
# CDK7, sequence (P50613 whole entry, looked up, species assumed): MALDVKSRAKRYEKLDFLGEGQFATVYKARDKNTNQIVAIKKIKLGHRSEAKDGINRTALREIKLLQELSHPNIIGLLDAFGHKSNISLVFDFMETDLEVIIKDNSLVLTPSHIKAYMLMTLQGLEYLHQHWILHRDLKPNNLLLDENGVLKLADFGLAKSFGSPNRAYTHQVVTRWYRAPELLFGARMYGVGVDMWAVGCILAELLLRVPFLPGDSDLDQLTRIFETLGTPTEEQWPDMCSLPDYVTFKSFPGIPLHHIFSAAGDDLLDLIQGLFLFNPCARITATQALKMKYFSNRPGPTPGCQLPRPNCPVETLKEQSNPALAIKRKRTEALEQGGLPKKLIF
# CDK7, sequence (P51946 whole entry partner, looked up, species assumed): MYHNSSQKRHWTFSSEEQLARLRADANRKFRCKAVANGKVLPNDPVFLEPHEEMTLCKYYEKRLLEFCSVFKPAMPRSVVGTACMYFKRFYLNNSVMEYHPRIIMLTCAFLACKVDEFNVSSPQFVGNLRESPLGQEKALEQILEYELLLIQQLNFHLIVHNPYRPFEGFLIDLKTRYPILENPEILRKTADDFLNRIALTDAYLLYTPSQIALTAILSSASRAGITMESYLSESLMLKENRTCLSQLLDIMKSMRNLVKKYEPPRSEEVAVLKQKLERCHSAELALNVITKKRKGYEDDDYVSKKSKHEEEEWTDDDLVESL
# CDK7, sequence (P51948 whole entry partner, looked up, species assumed): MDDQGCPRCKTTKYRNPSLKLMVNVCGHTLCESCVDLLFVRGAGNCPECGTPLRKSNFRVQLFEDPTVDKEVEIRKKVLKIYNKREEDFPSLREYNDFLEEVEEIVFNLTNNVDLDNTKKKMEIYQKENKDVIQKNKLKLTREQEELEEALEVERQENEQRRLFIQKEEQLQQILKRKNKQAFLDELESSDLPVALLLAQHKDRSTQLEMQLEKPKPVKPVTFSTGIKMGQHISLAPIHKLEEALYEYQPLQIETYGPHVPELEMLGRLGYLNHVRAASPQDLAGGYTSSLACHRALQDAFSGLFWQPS
SMILES,IC50 (CDK12 [1]),IC50 (CDK13),Ratio CDK7/CDK12 (CDK12 [1]; ratio of IC50),Ratio CDK7/CDK13 (CDK13),Ratio CDK7/CDK12 (CDK12 [1]),IC50 (CDK7),Kd (CDK12 [2])
"C=C(C)C(=O)N1CCC=C(c2ccc(CC(=O)Nc3cc(C4CC4)[nH]n3)cn2)C1 [Compound 57, N-(5-cyclopropy1-1H-pyrazol-3-yl)-2-(1′-methacryloyl-1′,2′,5′,6′-tetrahydro-[2,3′-bipyridin]-5-yl)acetamide]",140 nM,10 nM,–,–,–,–,–
"C=CC(=O)N1CCN(c2ccc(C(C)C(=O)Nc3cc(C4CC4)[nH]n3)cc2)CC1 (centres unmarked) [Compound 18, 2-(4-(4-acryloylpiperazin-1-yl)phenyl)-N-(5-cyclopropyl-1H-pyrazol-3-yl)propanamide]",–,–,9.75,198.46,–,–,–
"N#CN1CC=C(c2ccc(CC(=O)Nc3cc(C4CC4)[nH]n3)cn2)CC1 [Compound 62, 2-(1′-cyano-1′,2′,3′,6′-tetrahydro-[2,4′-bipyridin]-5-yl)-N-(5-cyclopropyl-1H-pyrazol-3-yl)acetamide]",4 nM,–,–,–,–,–,–
"CC#CC(=O)N1CC=C(c2ccc(C(C)C(=O)Nc3cc(C4CC4)[nH]n3)cn2)CC1 (centres unmarked) [Compound 51, 2-(1′-(but-2-ynoyl)-1′,2′,3′,6′-tetrahydro-[2,4′-bipyridin]-5-yl)-N-(5-cyclopropyl-1H-pyrazol-3-yl)propanamide]",203 nM,25 nM,–,67.68,8.33,1690 nM,–
"C=CC(=O)NC1CC=C(c2ccc(C(C)C(=O)Nc3cc(C4CC4)[nH]n3)cc2)CC1 (centres unmarked) [Compound 8, N-(4′-(1 ((5-cyclopropyl-1H-pyrazol-3-yl)amino)-1-oxopropan-2-yl)-2,3,4,5-tetrahydro-[1,1′-biphenyl]-4-yl)acrylamide]",380 nM,19 nM,–,–,–,–,25 to 100 nM
"C=CC(=O)N1CC=C(c2ccc(C(C)C(=O)Nc3cc(C4CC4)[nH]n3)cn2)C1 (centres unmarked) [Compound 38, 2-(6-(1-acryloyl-2,5-dihydro-1H-pyrrol-3-yl)pyridin-3-yl)-N-(5-cyclopropyl-1H-pyrazol-3-yl)propanamide]",34 nM,100 nM,–,10.1,29.7,1010 nM,–
"C=CC(=O)N1CCC=C(c2ccc(C(C)C(=O)Nc3cc(C4CC4)[nH]n3)cc2F)C1 (centres unmarked) [Compound 42, 2-(4-(1-acryloyl-1,2,5,6-tetrahydropyridin-3-yl)-3-fluorophenyl)-N-(5-cyclopropyl-1H-pyrazol-3-yl)propanamide]",14 nM,87 nM,–,5.05,31.42,440 nM,–
"C=CC(=O)N1CC=C(c2ccc(C(C)C(=O)Nc3cc(C4CC4)[nH]n3)cc2F)CC1 (centres unmarked) [Compound 45, 2-(4-(1-acryloyl-1,2,3,6-tetrahydropyridin-4-yl)-3-fluorophenyl)-N-(5-cyclopropyl-1H-pyrazol-3-yl)propanamide]",445 nM,260 nM,–,22.15,12.94,5760 nM,–
"C=CC(=O)N1CCC=C(c2ccc(C(C(=O)Nc3cc(C4CC4)[nH]n3)C(C)C)cn2)C1 (centres unmarked) [Compound 43, 2-(1′-acryloyl-1′,2′,5′,6′-tetrahydro-[2,3′-bipyridin]-5-yl)-N-(5-cyclopropyl-1H-pyrazol-3-yl)-3-methylbutanamide]",178 nM,54 nM,–,–,–,–,–
"C=CC(=O)N1CCC(c2ccc(C(C)C(=O)Nc3cc(C4CC4)[nH]n3)cn2)CC1 (centres unmarked) [Compound 13, 2-(6-(1-acryloylpiperidin-4-yl)pyridin-3-yl)-N-(5-cyclopropyl-1H-pyrazol-3-yl)propanamide]",58 nM,28 nM,–,357.14,172.41,> 10000 nM,–
"C=CC(=O)N1CC=C(c2ccc(C(C(=O)Nc3cc(C4CC4)[nH]n3)C(C)C)cc2)CC1 (centres unmarked) [Compound 3, 2-(4-(1-acryloyl-1,2,3,6-tetrahydropyridin-4-yl)phenyl)-N-(5-cyclopropyl-1H-pyrazol-3-yl)-3-methylbutanamide]",–,101 nM,–,5.0,–,506 nM,> 100 nM
"CC(C)=CC(=O)N1CCC=C(c2ccc(CC(=O)Nc3cc(C4CC4)[nH]n3)cn2)C1 [Compound 55, N-(5-cyclopropyl-1H-pyrazol-3-yl)-2-(1′-(3-methylbut-2-enoyl)-1′,2′,5′,6′-tetrahydro-[2,3′-bipyridin]-5-yl)acetamide]",178 nM,–,–,–,–,–,–
"C[C@H](C(=O)Nc1cc(C2CC2)[nH]n1)c1ccc(C2=CCN(C(=O)/C=C/CN3CCOCC3)CC2)cc1 [Compound 16, (S,E)-N-(5-cyclopropyl-1H-pyrazol-3-yl)-2-(4-(1-(4-morpholinobut-2-enoyl)-1,2,3,6-tetrahydropyridin-4-yl)phenyl)propanamide]",646 nM,35 nM,–,–,–,–,–
"C=CC(=O)N1CCCC(c2ccc(C(C)C(=O)Nc3cc(C4CC4)[nH]n3)cn2)C1 (centres unmarked) [Compound 41, 2-(6-(1-acryloylpiperidin-3-yl)pyridin-3-yl)-N-(5-cyclopropyl-1H-pyrazol-3-yl)propanamide]",354 nM,29 nM,–,121.03,9.91,3510 nM,–
"C=CC(=O)NC1CCC(c2ccc(C(C)C(=O)Nc3cc(C4CC4)n[nH]3)cc2)CC1 (centres unmarked) [Compound 11, N-(4-(4-(1-((5-cyclopropyl-1H-pyrazol-3-yl)amino)-1-oxopropan-2-yl)phenyl)cyclohexyl)acrylamide]",–,–,3.57,81.02,–,–,–
"C=CC(=O)N1CCC=C(c2ccc(C(C)C(=O)Nc3cc(C4CC4)[nH]n3)cn2)C1 (single isomer, unassigned) [Compound 36, 2-(1′-acryloyl-1′,2′,5′,6′-tetrahydro-[2,3′-bipyridin]-5-yl)-N-(5-cyclopropyl-1H-pyrazol-3-yl)propanamide]",686 nM,153 nM,–,–,–,–,25 to 100 nM
"C=CC(=O)N1CCN(c2ccc(C(C)C(=O)Nc3cc(C4CC4)[nH]n3)cc2)CC1 (single isomer, unassigned) [Compound 19, 2-(4-(4-acryloylpiperazin-1-yl)phenyl)-N-(5-cyclopropyl-1H-pyrazol-3-yl)propanamide]",–,5810 nM,–,–,–,–,> 100 nM
"C=CC(=O)NC1CCC(c2ccc(C(C)C(=O)Nc3cc(C4CC4)n[nH]3)cc2)CC1 (centres unmarked) [Compound 10, N-(4-(4-(1-((5-cyclopropyl-1H-pyrazol-3-yl)amino)-1-oxopropan-2-yl)phenyl)cyclohexyl)acrylamide]",–,–,7.42,305.11,–,–,–
"C=CC(=O)N1CC=C(c2ccc(C(C)C(=O)Nc3cc(C4CC4)[nH]n3)cn2)C1 (centres unmarked) [Compound 47, 2-(6-(1-acryloyl-2,5-dihydro-1H-pyrrol-3-yl)pyridin-3-yl)-N-(5-cyclopropyl-1H-pyrazol-3-yl)propanamide]",676 nM,6 nM,–,–,–,–,–
"C=CC(=O)N1CCC=C(c2ccc(C(CC)C(=O)Nc3cc(C4CC4)[nH]n3)cn2)C1 (centres unmarked) [Compound 39, 2-(1′-acryloyl-1′,2′,5′,6′-tetrahydro-[2,3′-bipyridin]-5-yl)-N-(5-cyclopropyl-1H-pyrazol-3-yl)butanamide]",41 nM,93 nM,–,–,–,–,–
"C=CC(=O)NC1CCN(c2ccc(C(C)C(=O)Nc3cc(C4CC4)[nH]n3)cc2)CC1 (centres unmarked) [Compound 21, N-(1-(4-(1-((5-cyclopropyl-1H-pyrazol-3-yl)amino)-1-oxopropan-2-yl)phenyl)piperidin-4-yl)acrylamide]",235 nM,73 nM,–,–,–,–,< 25 nM
"C/C=C/C(=O)N1CCC=C(c2ccc(CC(=O)Nc3cc(C4CC4)[nH]n3)cn2)C1 [Compound 54, (E)-2-(1′-(but-2-enoyl)-1′,2′,5′,6′-tetrahydro-[2,3′-bipyridin]-5-yl)-N-(5-cyclopropyl-1H-pyrazol-3-yl)acetamide]",94 nM,3 nM,–,–,–,–,–

# Reference: patent US10894786B2, “Substituted pyrazole derivatives as selective CDK12/13 inhibitors” (Aurigene Discovery Technologies Limited, priority 2018, dated 2021)
